Like-named read-outs stand apart in the source and are kept apart here.
Legend:
[1] = tested on: P. aeruginosa; test: P. aeruginosa growth (OD600); format: cell-based; settings: P. aeruginosa WT and QS mutant with vesicles, 12 hr
Experimental: (§1) Microtiter plate vesicle lysis assays. Portions of media (2 or 10 mL) were inoculated with individual bacterial colonies and allowed to shake overnight. From these overnight cultures, subcultures were prepared by diluting the cultures 1:50 (v/v) in fresh BHI for S. aureus or 1:100 (v/v) in fresh LB for P. aeruginosa. An aliquot of each subculture (178 μL) was added to 20 μL of vesicle suspension and 2 μL of compound solution (dissolved in DMSO at 100× working concentration) in a clear-bottomed, black 96-well microtiter plate (Corning 3904). For controls, DMSO (vehicle) or Triton X-100 (1% final concentration) was substituted for compound. Plate covers were coated with an aqueous solution of 0.05% Triton X-100 and 20% ethanol (Brewster, 2003) to prevent the accumulation of condensation. Plates were incubated in a Biotek Synergy 2 microplate reader running Gen5 1.05 software at 37° C. with shaking at the high-speed setting. Fluorescence (excitation 500 nm, emission 540 nm) and OD600 (absorbance at 600 nm) measurements were recorded every 15 minutes for 12 hours. All experiments were performed in technical triplicate in a single microtiter plate. Biological triplicates were then obtained over three days. GraphPad Prism software (v. 9) was used to generate curves and calculate standard error.

[2] = tested on: WT P. aeruginosa (PAO1-PGSC); test: Microtiter plate (96-well) vesicle lysis assay with WT P. aeruginosa; format: cell-based
Experimental: Compound handling and preparation. OdDHL and BHL (Hodgkinson et al., 2011), S. aureus AIP and peptide derivatives 1-5 (Tal-Gan et al., 2013, Tal-Gan et al., 2016, Vasquez and Blackwell, 2019), and compounds 7-9 (Welsh and Blackwell, 2016a, Boursier et al., 2018, Manson et al., 2020) were synthesized using previously described methods. PQS and compound 6 were purchased from Millipore Sigma and AK Scientific respectively. Compounds were stored dry at −20° C. until needed and then dissolved in DMSO. DMSO stock solutions were prepared at concentrations that varied with compound potency and apparent solubility. Final in-well compound concentrations for 96-well vesicle lysis assays, unless noted otherwise, were: 10 μM for AIP, OdDHL, and PQS; 1 mM for BHL; 100 nM for 1-4; 10 μM for 5; 20 μM for 6; 100 μM for 7 and 8; and 200 μM for 9.
Production of phospholipid vesicles with encapsulated calcein. Large unilamellar vesicles (LUVs) were produced by adapting a freeze-thaw and vesicle extrusion procedure (Mayer et al., 1986). Briefly, stock solutions of phospholipids (DOPC, DPPC, DPPE, or cholesterol) in chloroform were mixed to the desired lipid compositions (70 mol % DOPC/30 mol % cholesterol for S. aureus vesicles or 68 mol % DPPC, 30 mol % cholesterol, 2 mol % DPPE for P. aeruginosa vesicles), and the chloroform was removed using an N2 stream or rotary evaporation followed by drying for at least one hour under vacuum. Self-quenching solutions of calcein were prepared by combining calcein and PBS or a specially prepared calcein buffer (1 mM EDTA, 10 mM Trisbase, and 100 mM NaCl; pH 8) to a calcein concentration of […]. The resulting solutions were titrated with 10 M aqueous NaOH until all calcein was dissolved and the solution reached pH 7.4 or pH 8 for PBS and the calcein buffer, respectively. The resulting calcein solutions were added to the dried phospholipid films (PBS for S. aureus formulations and the calcein buffer for the P. aeruginosa formulations) for a final lipid concentration of 5 mg/mL. The resulting lipid solutions were vortexed vigorously and briefly sonicated in a bath sonicator to form a turbid vesicle suspension. The vesicle suspensions were then freeze-thawed five times by alternately immersing them into an iPrOH/dry ice bath and a warm water bath (˜60° C.). Vesicles prepared for continuous time-course experiments were passed at least 5 times through a 100 nm polycarbonate filter using a Mini-prep extruder. Vesicles prepared for the high-throughput screen were passed through the filter 3 times. The resulting vesicles were then separated from external, unloaded calcein using a hand-packed Sephadex-G50 size exclusion chromatography column. The concentration of phospholipid in the solution was quantified using ^31P NMR (per the above protocol), and the phospholipid concentration was adjusted to 2 mM for unsaturated lipid solutions and 1 mM for saturated lipid solutions in their respective buffers. The resulting vesicles were characterized by dynamic light scattering and found to have a hydrodynamic diameter of ˜150 nm (FIGS. 3A-3C), which agrees with previous reports describing vesicle production using a similar method (Lapinski et al., 2007).
Microtiter plate vesicle lysis assays. Portions of media (2 or 10 mL) were inoculated with individual bacterial colonies and allowed to shake overnight. […]

[3] = Solubility in DMSO and aqueous solutions
[4] = tested on: agr; test: agr YFP transcriptional reporter assay (S. aureus AH1677 with pDB59); format: cell-based; settings: for agr inhibition in agr transcriptional reporter assay: S. aureus agr YFP reporter; for IC50: Staphylococcus aureus
Experimental: Bacterial strains and culture. All bacteria were grown at 37° C. with 200 rpm shaking unless otherwise specified. S. aureus and P. aeruginosa were grown in BHI medium and LB medium, respectively. S. aureus AH1677 (with an agr-YFP reporter plasmid) and P. aeruginosa PAO1-PGSC (with a plasI-LVAgfp reporter plasmid) were used as QS transcriptional reporters and grown with 10 μg/mL chloramphenicol and 300 μg/mL carbenicillin, respectively. All other strains were grown without supplemental antibiotic. S. aureus RN6390b and P. aeruginosa PAO1-PGSC were used as WT strains in vesicle lysis experiments, while S. aureus RN9222 and P. aeruginosa PAO-JG35 were used as QS mutants. RN9222 was grown without antibiotic as it was not used as a reporter strain (i.e., it served only as QS mutant).
High-throughput screening and follow-up analysis protocols. Test compounds and positive control 1 were delivered in 2.5 nL aliquots of DMSO with an Echo 550 liquid handler (LabCyte Inc.) into black 384-well microtiter plates (Corning). All test compounds were tested at 10 μM; positive control 1 was tested at 250 nM. DMSO was used as a negative control. Overnight cultures (2 mL) of WT S. aureus (RN6390b) were grown at 37° C. with shaking at 200 rpm. These cultures were diluted 1:500 (v/v) in fresh BHI medium, at which point vesicle solutions were added to a final concentration of 1 mM phospholipid (as determined by ^31P NMR analyses). This vesicle-cell mixture was then added to the 384-well microtiter plates with a Multidrop 384 liquid-dispensing robot (Thermo Scientific) for a total volume of 50 μL per well. Plates were incubated statically for ˜24 hr at 37° C., at which point fluorescence (excitation 483, emission 530) and OD600 (absorbance at 600 nm) measurements were made using a CLARIOstarR Plus microtiter plate reader (BMG Labtech) running MARS data analysis software. Scatter plots were generated using the Collaborative Drug Discovery Vault informatics platform. The dose-response experiment using the vesicle lysis assay was performed in a 384-well plate in technical duplicate with compound concentrations of 0.1, 0.25, 0.5, 1, 2.5, 5, 10, and 20 μM. Dose-response curves were generated using variable slope (4 parameter) non-linear regression analysis for compound inhibition using GraphPad Prism software (v. 9). Analysis of the QS modulatory activity of the HTS hits and 6 (savirin) was performed using the S. aureus YFP transcriptional reporter strain. HTS hits were purchased directly from Life Chemicals, Inc. DMSO stock solutions (10 mM) of each compound were prepared and stored at −20° C. Serial dilutions (1:3) were prepared from the stock solutions in DMSO, and 2 μL aliquots of the resulting dilutions were added to the wells of black 96-well microtiter plates (Corning). Overnight cultures of the S. aureus reporter strain (2 mL) were grown at 37° C. with shaking at 200 rpm. Cultures were diluted 1:50 (v/v) into fresh BHI medium, and 198 μL of this diluted culture were added to each well containing compound, for a total volume of 200 μL per well. All plates contained a vehicle control consisting of 2 μL of DMSO and 198 μL of culture and a media control consisting of 200 μL BHI. Plates were incubated for ˜24 hours at 37° C. with shaking at 200 rpm. Fluorescence (excitation 510, emission 544) and OD600 measurements were acquired with a PerkinElmer EnVision microtiter plate reader running Envision Manager software. Background fluorescence from BHI control was subtracted from raw fluorescence reads, OD600 corrected, and finally normalized to vehicle control. Dose-response curves and IC50 values were generated using 3-parameter non-linear regression analysis for compound inhibition using GraphPad Prism software (v. 9). All compounds were tested in technical triplicate with at least 3 biological replicates.

[5] = target: T1, human apelin receptor (Homo sapiens, UniProt P35414); settings: Smith, 2019; cited from earlier work
T1 sequence (P35414 1-380): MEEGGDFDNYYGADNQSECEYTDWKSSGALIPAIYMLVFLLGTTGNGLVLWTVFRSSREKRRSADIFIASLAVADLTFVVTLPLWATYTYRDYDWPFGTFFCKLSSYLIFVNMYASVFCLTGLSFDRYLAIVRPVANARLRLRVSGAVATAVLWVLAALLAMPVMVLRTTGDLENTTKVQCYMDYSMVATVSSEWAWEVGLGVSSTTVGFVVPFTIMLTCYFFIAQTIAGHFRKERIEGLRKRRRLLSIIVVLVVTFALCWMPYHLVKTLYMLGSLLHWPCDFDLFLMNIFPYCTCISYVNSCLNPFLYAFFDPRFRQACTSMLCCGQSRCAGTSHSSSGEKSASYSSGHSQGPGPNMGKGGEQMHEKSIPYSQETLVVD

[6] = tested on: S. aureus; test: S. aureus growth (OD600); format: cell-based; settings: S. aureus, HTS hits
Experimental: as §1
High-throughput screening and follow-up analysis protocols. Test compounds and positive control 1 were delivered in 2.5 nL aliquots of DMSO with an Echo 550 liquid handler (LabCyte Inc.) into black 384-well microtiter plates (Corning). All test compounds were tested at 10 μM; positive control 1 was tested at 250 nM. DMSO was used as a negative control. Overnight cultures (2 mL) of WT S. aureus (RN6390b) were grown at 37° C. with shaking at 200 rpm. These cultures were diluted 1:500 (v/v) in fresh BHI medium, at which point vesicle solutions were added to a final concentration of 1 mM phospholipid (as determined by ^31P NMR analyses). This vesicle-cell mixture was then added to the 384-well microtiter plates with a Multidrop 384 liquid-dispensing robot (Thermo Scientific) for a total volume of 50 μL per well. Plates were incubated statically for ˜24 hr at 37° C., at which point fluorescence (excitation 483, emission 530) and OD600 (absorbance at 600 nm) measurements were made using a CLARIOstarR Plus microtiter plate reader (BMG Labtech) running MARS data analysis software. Scatter plots were generated using the Collaborative Drug Discovery Vault informatics platform. […] Fluorescence (excitation 510, emission 544) and OD600 measurements were acquired with a PerkinElmer EnVision microtiter plate reader running Envision Manager software. […]

[7] = 24 h, read-out: IC50 in the agr reporter assay

SMILES | effect on bacterial growth [1] | delay of vesicle lysis relative to vehicle controls ([2]; 100 μM 7 and 8) | delay of the onset of vesicle lysis ([2]; 100 μM 7 and 8, FIG. 7C) | solubility in DMSO and aqueous solutions [3] | agr inhibition in agr transcriptional reporter assay [4] | IC50 [4] | IC50 [4, 7] | reported activity at human apelin receptor [5] | inhibition of cellular growth [6]
CCCCCCCCCC(=O)CC(=O)Nc1ccccc1 [Compound 7, V-06-018] | inhibit growth mildly at later time points | approximately two | approximately 2 hr |  |  |  |  |  | 
Cc1nn2c(C(C)C)cc(C(=O)O)nc2c1-c1ccccc1 [Compound 10, 7-isopropyl-2-methyl-3-phenylpyrazolo[1,5-a]pyrimidine-5-carboxylic acid] |  |  |  | readily soluble | near maximal agr inhibitors | 1220 nM | 500 nM | agonists | do not inhibit cellular growth
O=C(Nc1nc2c(s1)CN(C(=O)Nc1cccc(Cl)c1)CC2)c1ccsc1 [Compound 11, N-(3-chlorophenyl)-2-(thiophene-3-carboxamido)-6,7-dihydrothiazolo[5,4-c]pyridine-5(4H)-carboxamide] |  |  |  | readily soluble | near maximal agr inhibitors |  | 700 nM |  | do not inhibit cellular growth

— patent publication US12070445B2, “System and assay for monitoring production/release of membrane-lytic toxins in bacteria and compounds for modulating same” (priority 2021, dated 2024)
